Counter-ions that a name gives are not always drawn.
Key:
[1] = tested on: Phosphorylated Ribosomal Protein S6 (RPS6) in THP-1 cells; test: THP-1 RPS6 ELISA Assay; assay type: cell-based; settings: Homo sapiens, 2 hours compound, 10 nM MCP-1 for 15 minutes, Phospho-RPS6 ELISA, read-out: PI3Kγ_THP1_RPS6_ELISA IC50
Method: Example A. THP-1 RPS6 ELISA Assay To measure the Phosphorylated Ribosomal Protein S6 (RPS6) in cell lysates, THP-1 cells (Human Acute Monocytic Leukemia) are purchased from ATCC (Manassas, Va.) and maintained in RPMI with 10% FBS (Gibco/Life Technologies, Carlsbad, Calif.). For the assay, THP-1 cells are serum starved overnight in RPMI, then plated in RPMI (2×10^5 cells/well in 90 μL) into 96-well flat-bottom tissue culture treated plates (Corning, Corning, N.Y.), in the presence or absence of a concentration range of test compounds. Covered plates are incubated for 2 hours at 37° C., 5% CO2 then treated with or without 10 nM MCP-1 (MYBioSource, San Diego, Calif.) for 15 minutes at 37° C., 5% CO2. Plates are centrifuged at 1600 RPM and supernatants are removed. Cells are lysed in Lysis Buffer (Cell Signaling, Danvers, Mass.) with Protease Inhibitor (Calbiochem/EMD, Germany), PMSF (Sigma, St Louis Mo.), HALTS (Thermo Fisher, Rockford, Ill.) for 30 min on wet ice. Cell lysates are frozen at −80° C. before testing. The lysates are tested in the Human/Mouse/Rat Phospho-RPS6 ELISA (R&D Systems, Inc. Minn, Minn.). The plate is measured using a microplate reader (SpectraMax M5-Molecular Devices, LLC Sunnyvale, Calif.) set to 450 nm with a wavelength correction of 540. IC50 determination is performed by fitting the curve of inhibitor percent inhibition versus the log of the inhibitor concentration using the GraphPad Prism 5.0 software.

[2] = target: PI3Kδ (p110δ/p85α) Recombinant Human Protein (Homo sapiens (Human), UniProt O00329); test: PI3Kδ Scintillation Proximity Assay; assay type: biochemical; settings: 20 μM PIP2, 2 μM ATP, 3.4 nM PI3Kδ, 120 min
From the text: Example C. PI3Kδ Scintillation Proximity Assay
(§1) [γ-^33P]ATP (10 mCi/mL) and Wheat Germ Agglutinin (WGA) YSi SPA Scintillation Beads was purchased from Perkin Elmer (Waltham, Mass.). Lipid kinase substrate, D-myo-Phosphatidylinositol 4,5-bisphosphate (PtdInS(4,5)P2)D (+)-sn-1,2-di-O-octanoylglyceryl, 3-O-phospho linked (PIP2), CAS 204858-53-7, was purchased from Echelon Biosciences (Salt Lake City, Utah). PI3Kδ (p110δ/p85α) Recombinant Human Protein was purchased from Eurofins (St Charles, Mo.). ATP, MgCl2, DTT, EDTA, MOPS and CHAPS were purchased from Sigma Aldrich (St. Louis, Mo.).
(§2) The kinase reaction was conducted in polystyrene 384-well Greiner Bio-one white plate from Thermo Fisher Scientific in a final volume of 25 μL. Inhibitors were first diluted serially in DMSO and added to the plate wells before the addition of other reaction components. The final concentration of DMSO in the assay was 2%. The PI3Kδ assay was carried out at room temperature in 20 mM MOPS, pH 6.7, 10 mM MgCl2, 5 mM DTT and CHAPS 0.03%. Reactions were initiated by the addition of ATP, the final reaction mixture consisted of 20 μM PIP2, 2 μM ATP, 0.5 μCi [γ-^33P]ATP, 3.4 nM PI3Kδ. Reactions were incubated for 120 min and terminated by the addition of 40 μL SPA beads suspended in quench buffer: 163 mM potassium phosphate pH 7.8, 20% glycerol, 25 mM EDTA. The final concentration of SPA beads is 1.0 mg/mL. After the plate sealing, plates were shaken overnight at room temperature and centrifuged at 1500 rpm for 10 min, the radioactivity of the product was determined by scintillation counting on Topcount (PerkinElmer). IC50 determination was performed by fitting the curve of percent of the solvent control activity versus the log of the inhibitor concentration using the GraphPad Prism 6.0 software.

[3] = target: PI3Kγ (p110γ) Recombinant Human Protein (Homo sapiens (Human), UniProt P48736); test: PI3K-γ Scintillation Proximity Assay; assay type: biochemical; settings: 20 μM PIP2, 2 μM ATP, 13 nM PI3Kγ, 120 min
From the text: Example B. PI3K-γ Scintillation Proximity Assay
as §1, with “PI3Kγ (p110γ)” for “PI3Kδ (p110δ/p85α)”, “Life technology (Grand Island, N.Y.).” for “Eurofins (St Charles, Mo.).”
as §2, with “PI3Kγ” for “PI3Kδ”, “[γ-^33p]ATP, 13” for “[γ-^33P]ATP, 3.4”, “PI3Kγ.” for “PI3Kδ.”

PI3Kδ (p110δ/p85α) Recombinant Human Protein, sequence (O00329 whole entry): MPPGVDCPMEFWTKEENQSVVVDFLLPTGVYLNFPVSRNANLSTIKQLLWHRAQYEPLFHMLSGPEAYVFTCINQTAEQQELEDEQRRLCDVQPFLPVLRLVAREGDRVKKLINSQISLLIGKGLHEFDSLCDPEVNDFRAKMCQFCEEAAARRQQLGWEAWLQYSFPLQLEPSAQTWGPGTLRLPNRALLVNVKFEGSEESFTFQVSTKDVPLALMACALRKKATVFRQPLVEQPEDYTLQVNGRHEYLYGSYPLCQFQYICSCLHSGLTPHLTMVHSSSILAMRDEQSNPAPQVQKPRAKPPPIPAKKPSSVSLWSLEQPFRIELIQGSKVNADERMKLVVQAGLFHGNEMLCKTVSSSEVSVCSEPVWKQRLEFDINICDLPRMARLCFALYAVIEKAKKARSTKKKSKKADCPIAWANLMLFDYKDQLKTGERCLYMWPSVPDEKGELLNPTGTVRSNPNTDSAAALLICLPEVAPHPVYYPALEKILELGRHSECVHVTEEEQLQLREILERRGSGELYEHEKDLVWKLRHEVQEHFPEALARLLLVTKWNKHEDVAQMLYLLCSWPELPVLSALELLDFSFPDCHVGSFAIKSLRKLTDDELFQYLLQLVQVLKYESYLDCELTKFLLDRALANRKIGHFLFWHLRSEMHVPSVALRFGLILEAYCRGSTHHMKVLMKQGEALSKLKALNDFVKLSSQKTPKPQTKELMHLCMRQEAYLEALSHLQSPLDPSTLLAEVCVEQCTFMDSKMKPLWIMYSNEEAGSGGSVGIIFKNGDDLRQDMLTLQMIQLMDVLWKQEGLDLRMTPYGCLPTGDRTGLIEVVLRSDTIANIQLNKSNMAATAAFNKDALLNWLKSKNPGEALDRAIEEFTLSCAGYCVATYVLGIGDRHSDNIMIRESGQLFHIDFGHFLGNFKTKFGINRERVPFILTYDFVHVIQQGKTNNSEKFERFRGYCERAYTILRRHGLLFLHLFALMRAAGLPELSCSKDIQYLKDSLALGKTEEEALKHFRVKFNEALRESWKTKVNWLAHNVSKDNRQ
PI3Kδ (p110δ/p85α) Recombinant Human Protein, sequence (P27986 whole entry partner): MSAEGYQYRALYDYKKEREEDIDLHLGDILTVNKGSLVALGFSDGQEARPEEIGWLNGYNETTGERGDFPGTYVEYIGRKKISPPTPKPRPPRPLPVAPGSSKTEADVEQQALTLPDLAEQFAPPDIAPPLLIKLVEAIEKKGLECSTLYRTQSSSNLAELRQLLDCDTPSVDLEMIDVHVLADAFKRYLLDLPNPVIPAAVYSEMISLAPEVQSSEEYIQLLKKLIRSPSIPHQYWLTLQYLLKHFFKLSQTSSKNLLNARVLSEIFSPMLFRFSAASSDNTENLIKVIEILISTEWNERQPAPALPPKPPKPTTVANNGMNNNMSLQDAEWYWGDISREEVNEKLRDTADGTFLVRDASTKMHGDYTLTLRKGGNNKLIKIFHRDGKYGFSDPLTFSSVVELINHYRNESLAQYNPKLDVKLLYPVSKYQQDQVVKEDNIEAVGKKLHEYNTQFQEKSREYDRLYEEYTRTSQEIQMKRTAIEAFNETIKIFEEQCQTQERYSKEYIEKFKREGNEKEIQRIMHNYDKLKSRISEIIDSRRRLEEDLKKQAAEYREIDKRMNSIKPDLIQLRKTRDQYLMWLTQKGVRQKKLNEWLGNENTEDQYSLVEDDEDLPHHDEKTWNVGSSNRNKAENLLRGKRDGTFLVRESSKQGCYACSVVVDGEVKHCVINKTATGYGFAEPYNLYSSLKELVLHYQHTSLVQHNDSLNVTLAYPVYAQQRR
PI3Kγ (p110γ) Recombinant Human Protein, sequence (P48736 whole entry): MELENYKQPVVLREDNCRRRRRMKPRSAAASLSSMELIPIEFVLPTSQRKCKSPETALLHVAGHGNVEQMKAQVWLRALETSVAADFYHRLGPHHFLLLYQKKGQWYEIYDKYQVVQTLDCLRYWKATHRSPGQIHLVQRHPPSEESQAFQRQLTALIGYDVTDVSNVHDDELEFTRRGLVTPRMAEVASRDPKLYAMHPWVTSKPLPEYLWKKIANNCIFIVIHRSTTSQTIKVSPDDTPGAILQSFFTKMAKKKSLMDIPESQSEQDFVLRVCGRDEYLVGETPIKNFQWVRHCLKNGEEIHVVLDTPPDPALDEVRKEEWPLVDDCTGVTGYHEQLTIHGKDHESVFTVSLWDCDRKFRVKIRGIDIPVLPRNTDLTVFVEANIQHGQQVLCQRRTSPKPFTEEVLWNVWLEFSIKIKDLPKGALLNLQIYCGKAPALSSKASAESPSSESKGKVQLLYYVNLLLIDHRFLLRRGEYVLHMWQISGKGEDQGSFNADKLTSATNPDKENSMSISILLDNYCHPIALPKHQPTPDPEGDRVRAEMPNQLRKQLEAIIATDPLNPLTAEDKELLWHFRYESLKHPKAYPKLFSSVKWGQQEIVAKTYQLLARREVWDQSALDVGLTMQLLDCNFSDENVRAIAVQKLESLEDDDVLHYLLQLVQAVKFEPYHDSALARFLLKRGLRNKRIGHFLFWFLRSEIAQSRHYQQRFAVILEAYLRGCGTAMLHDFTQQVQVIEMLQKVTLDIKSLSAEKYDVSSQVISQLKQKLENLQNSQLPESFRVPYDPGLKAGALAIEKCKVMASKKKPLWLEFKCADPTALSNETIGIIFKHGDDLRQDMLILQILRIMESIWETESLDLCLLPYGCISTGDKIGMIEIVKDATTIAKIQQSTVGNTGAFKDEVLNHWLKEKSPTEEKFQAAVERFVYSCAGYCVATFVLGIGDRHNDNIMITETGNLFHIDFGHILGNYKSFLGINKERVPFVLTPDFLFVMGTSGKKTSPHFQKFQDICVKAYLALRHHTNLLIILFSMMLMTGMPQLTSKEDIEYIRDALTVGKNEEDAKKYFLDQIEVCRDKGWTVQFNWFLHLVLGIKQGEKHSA

Row | IC50 [1] | IC50 [2] | IC50 [3] | SMILES
1 | ≥ 1000 nM | ≤ 500 nM | ≤ 100 nM | C[C@@H](C1CC1)N1Cc2cc(-c3cnc4c(N)nc(-c5cn[nH]c5)cn34)cc(S(C)(=O)=O)c2C1=O [Example 38, (S)-5-(8-Amino-6-(1H-pyrazol-4-yl)imidazo[1,2-a]pyrazin-3-yl)-2-(1-cyclopropylethyl)-7-(methylsulfonyl)isoindolin-1-one, trifluoroacetate salt]
2 | ≤ 100 nM | ≤ 100 nM | ≤ 100 nM | Cc1ncc(-c2cn3c(-c4cc5c(c(S(C)(=O)=O)c4)C(=O)N([C@@H](C)C4CC4)C5)cnc3c(N)n2)s1 [Example 34, (S)-5-(8-Amino-6-(2-methylthiazol-5-yl)imidazo[1,2-a]pyrazin-3-yl)-2-(1-cyclopropylethyl)-7-(methylsulfonyl)isoindolin-1-one, trifluoroacetate salt]
3 | < 1000 nM | ≤ 500 nM | ≤ 100 nM | C[C@@H](C1CC1)N1Cc2cc(-c3cnc4c(N)nc(C(=O)NC5CCOCC5)cn34)cc(S(C)(=O)=O)c2C1=O [Example 29, (S)-8-Amino-3-(2-(1-cyclopropylethyl)-7-(methylsulfonyl)-1-oxoisoindolin-5-yl)-N-(tetrahydro-2H-pyran-4-yl)imidazo[1,2-a]pyrazine-6-carboxamide, trifluoroacetate salt]
4 | ≥ 1000 nM | ≤ 500 nM | ≤ 100 nM | CC(O)c1cc(-c2cnc3c(N)ncnn23)cc2c1C(=O)N([C@@H](C)C1CC1)C2 (mixture of isomers) [Example 16, 5-(4-Aminoimidazo[2,1-f][1,2,4]triazin-7-yl)-2-((S)-1-cyclopropylethyl)-7-(1-hydroxyethyl)isoindolin-1-one trifluoroacetate salt]
5 | < 1000 nM | ≤ 500 nM | ≤ 100 nM | C[C@@H](C1CC1)N1Cc2cc(-c3cnc4c(N)ncnn34)cc(S(C)(=O)=O)c2C1=O [Example 8, (S)-5-(4-Aminoimidazo[2,1-f][1,2,4]triazin-7-yl)-2-(1-cyclopropylethyl)-7-(methylsulfonyl)isoindolin-1-one]
6 | ≥ 1000 nM | ≥ 2000 nM | ≤ 100 nM | C[C@@H](C1CC1)N1Cc2cc(-c3cnc4c(N)nc(C(=O)NC5CCOCC5O)cn34)ccc2C1=O (mixture of isomers) [Example 32, 8-Amino-3-(2-((S)-1-cyclopropylethyl)-1-oxoisoindolin-5-yl)-N-(3-hydroxytetrahydro-2H-pyran-4-yl)imidazo[1,2-a]pyrazine-6-carboxamide, trifluoroacetate salt]
7 | < 1000 nM | ≤ 500 nM | ≤ 100 nM | Cc1[nH]ncc1-c1cn2c(-c3cc4c(c(S(C)(=O)=O)c3)C(=O)N([C@@H](C)C3CC3)C4)cnc2c(N)n1 [Example 37, (S)-5-(8-Amino-6-(5-methyl-1H-pyrazol-4-yl)imidazo[1,2-a]pyrazin-3-yl)-2-(1-cyclopropylethyl)-7-(methylsulfonyl)isoindolin-1-one, trifluoroacetate salt]
8 | ≤ 500 nM | ≤ 500 nM | ≤ 100 nM | C[C@@H](C1CC1)N1Cc2cc(-c3cnc4c(N)nc(-c5cnn(C)c5)cn34)cc(S(C)(=O)=O)c2C1=O [Example 35, (S)-5-(8-Amino-6-(1-methyl-1H-pyrazol-4-yl)imidazo[1,2-a]pyrazin-3-yl)-2-(1-cyclopropylethyl)-7-(methylsulfonyl)isoindolin-1-one, trifluoroacetate salt]
9 | ≥ 1000 nM | ≥ 2000 nM | ≤ 100 nM | C[C@@H](C1CC1)N1Cc2cc(-c3cnc4c(N)nc(C(=O)NC5CC(O)C5)cn34)ccc2C1=O (stereo partly drawn) [Example 31, (S)-8-Amino-3-(2-(1-cyclopropylethyl)-1-oxoisoindolin-5-yl)-N-(3-hydroxycyclobutyl)imidazo[1,2-a]pyrazine-6-carboxamide, trifluoroacetate salt]
